This passage reports IC50 results from patent US10544134B2, “4-substituted coumarin derivatives and preparation methods and uses thereof” (SI CHUAN UNIVERSITY, priority 2015, dated 2020).

Common to all, as to test: Tumor cell proliferation inhibitory activity test in vitro (MTT)
For test [1], the system named is colon carcinoma cell HCT116. Type of test: cell-based, human. As to conditions: read-out: IC50 of compounds for tumor cells, Activity, HCT116. The source says: (§1) Human non-small cell lung cancer cell line NCI-H460, human small cell lung cancer cell line NCI-H446, human hepatocellular carcinoma cell strain HepG2, human colon carcinoma cell strain HCT116, human prostate cancer PC-3, human melanoma A375, colon carcinoma cell HCT-8, breast cancer cell MCF-7, ovarian cancer cell A2780s, drug-resistant ovarian cancer cell A2780/T, drug-resistant colon cancer cell HCT-8/T and doxorubicin-resistant breast cancer cell MCF-7/ADR are obtained from American Type Culture Collection (ATCC) and are cultured and preserved by the cell bank of State Key Laboratory of Biotherapy of Sichuan University. Above tumor cells are routinely cultured in DMEM culture medium containing 10% fetal bovine serum, 100 U·mL-1 penicillin and 100 mg·L−1 streptomycin, and in an incubator at 37° C. and with saturated humidity and 5% CO2 concentration.
(§2) Fill diluted cell suspension in the 96-well plate with 1000-10000 cells per well and incubate it in CO2 incubator overnight.
(§3) Replace with new medium containing various concentrations of compounds to be tested for the test group and replace with fresh medium with equal volume for the control group, each group is arranged with 5 parallel wells and incubated in an incubator at 37° C. and with 5% CO2 concentration.
(§4) Discard the supernatant after 72 hours, add 200 μL freshly prepared serum-free medium containing 0.2 mg/mL MTT into each well, continue to incubate at 37° C. for 1-4 hours, then stop incubation, carefully remove the culture supernatant in the wells and add 200 uL DMSO (dimethyl sulfoxide), oscillate with a miniature ultrasonic oscillator for 15-20 minutes to make the crystal fully dissolved and mixed. Determine OD values using a microplate reader at 570 nm with a reference wavelength of 450 nm.
(§5) Draw curves based on the growth inhibition rate for tumor cells of the same sample with different concentrations to get dose-response curve, so as to calculate IC50. Repeat each test for 3 times, measure IC50 (μM) or nanomolor concentration (nM) of compounds in different tumor cells.

The test system of test [2] is hepatocellular carcinoma cell HEPG2. Type of test: cell-based, human. The following applies: read-out: IC50 of compounds for tumor cells, Activity, HEPG2.
Text: as §1, §2, §3, §4, §5

The test system of the next test is melanoma A375. Type of test: cell-based, human. As to conditions: read-out: IC50 of compounds for tumor cells, Activity, A375.
Text: as §1, §2, §3, §4, §5

Test [3] has as its system non-small cell lung cancer cell line NCI-H460. Type of test: cell-based, human. As to conditions: read-out: IC50 of compounds for tumor cells, Activity, H460.
Text: as §1, §2, §3, §4, §5

The next test has as its system prostate cancer PC-3. Type of test: cell-based, human. The following applies: 72 hours, read-out: IC50 of compounds for tumor cells, Activity, PC-3.
Text: as §1, §2, §3, §4, §5

The subject of another test is breast cancer cell MCF-7. Type of test: cell-based. The following applies: read-out: IC50 of compounds for tumor cells, Activity, MCF-7.
Text: as §1, §2, §3, §4, §5

Where [4] appears, read: Homo sapiens, HCT-116, 72 hours.
[5] abbreviates: Homo sapiens, NCI-H460, 72 hours.

Structures are written as SMILES. Like-named read-outs stand apart in the source and are kept apart here.

As a reminder, the IC50 is the midpoint of a concentration-inhibition curve. As to `COc1ccc(N(C)c2cc(=O)oc3ccccc23)cc1OCCN1CCOCC1` [COUM-49, 4-(N-methyl-N-(4-methoxy-3-(2-morpholinoethoxy)-benzene)-amino) Coumarin], the IC50 (in test [1] (72 hours); in test [2] (72 hours); in the test with melanoma A375 (72 hours); in test [3] (72 hours); in the test with prostate cancer PC-3; in the test with breast cancer cell MCF-7 (72 hours)) was 0.1 to 5 µM each time.

Take `COc1ccc(N(C)c2cc(=O)oc3ccccc23)cc1OCCN1CCSCC1` [COUM-50, 4-(N-methyl-N-(4-methoxy-3-(2-thiomorpholinoethoxy)-benzene)-amino) Coumarin]: the concentration for half-maximal inhibition (IC50) (in test [1] (72 hours); in test [2] (72 hours); in the test with melanoma A375 (72 hours); in test [3] (72 hours); with prostate cancer PC-3; in the test with breast cancer cell MCF-7 (72 hours)) was 0.01 to 0.1 µM in each case.

In the case of `COc1ccc(N(C)c2cc(=O)oc3ccccc23)cc1OCCN1CCCCC1` [COUM-51, 4-(N-methyl-N-(4-methoxy-3-(2-piperidinoethoxy)-benzene)-amino) Coumarin], the IC50 (in test [1] (72 hours); in test [2] (72 hours); in the test with melanoma A375 (72 hours); in test [3] (72 hours); with prostate cancer PC-3; in the test on breast cancer cell MCF-7 (72 hours)) was greater than 5 µM throughout.

For the compound `COc1ccc(N(C)c2cc(=O)oc3ccccc23)cc1OS(=O)(=O)Cc1ccc(C)cc1` [COUM-55, 4-(N-methyl-N-(4-methoxy-3-(4-methylbenzene) methanesulfonate-benzene)-amino) Coumarin], the IC50 (in test [1] (72 hours); in test [2] (72 hours); in the test with melanoma A375 (72 hours); in test [3] (72 hours); with prostate cancer PC-3; in the test on breast cancer cell MCF-7 (72 hours)) was 0.1 to 5 µM throughout.

For the compound `CCOc1cc(N(C)c2cc(=O)oc3ccccc23)ccc1OC` [COUM-58, 4-(N-methyl-N-(4-methoxy-3-ethoxy-benzene)-amino) Coumarin], the IC50 (in test [1] (72 hours); in test [2] (72 hours); in the test with melanoma A375 (72 hours); in test [3] (72 hours); in the test on prostate cancer PC-3; in the test on breast cancer cell MCF-7 (72 hours)) was greater than 5 µM throughout.

Regarding `COc1ccc(N(C)c2cc(=O)oc3ccccc23)cc1OC(=O)CCCl` [COUM-60, 4-(N-methyl-N-(4-methoxy-3-(2-chloroethylcarbonyloxy)-benzene)-amino) Coumarin], the IC50 (in test [1] (72 hours); in test [2] (72 hours); in the test with melanoma A375 (72 hours); in test [3] (72 hours); in the test with prostate cancer PC-3; with breast cancer cell MCF-7 (72 hours)) was 0.1 to 5 µM in each case.

Consider `COc1ccc(N(C)c2cc(=O)oc3ccccc23)cc1OC(=O)C(CCSC)NC(=O)OC(C)(C)C` (stereo not drawn) [COUM-86, 4-(N-methyl-N-(4-methoxy-3-(Boc-methionine)benzene)amino) Coumarin], for which the IC50 in test [1] (setting [4]) was in the range of 0.1 to 5 µM; in test [2] (Homo sapiens, HepG2, 72 hours), 0.1 to 5 µM; with melanoma A375 (Homo sapiens, A-375, 72 hours) it was 0.1 to 5 µM; in test [3] (setting [5]), 0.1 to 5 µM; in the test on prostate cancer PC-3 (Homo sapiens), 0.1 to 5 µM; in the test with breast cancer cell MCF-7 (Homo sapiens, MCF7, 72 hours), 0.1 to 5 µM.

`COC(=O)CCCCCCCCCCOc1cc(N(C)c2cc(=O)oc3ccccc23)ccc1OC` [COUM-94, 4-(N-methyl-N-(4-methoxy-3-(1-methyl ester-decane-oxy)phenyl)-amino) Coumarin]: the IC50 in test [1] (setting [4]) is greater than 5 µM; in test [2] (Homo sapiens, HepG2, 72 hours) it was greater than 5 µM; with melanoma A375 (Homo sapiens, A-375, 72 hours) it was greater than 5 µM; in test [3] (setting [5]) it was greater than 5 µM; in the test on prostate cancer PC-3 (Homo sapiens), greater than 5 µM; in the test with breast cancer cell MCF-7 (Homo sapiens, MCF7, 72 hours), greater than 5 µM.

For the compound `COc1ccc(N(C)c2cc(=O)oc3ccccc23)cc1NC(=O)C1CCCC1` [COUM-97, 4-(N-methyl-N-(4-methoxy-3-(cyclopentylcarbonylamino)phenyl)-amino) Coumarin], the IC50 fell in the range of 0.1 to 5 µM in test [1] (setting [4]); 0.1 to 5 µM in test [2] (Homo sapiens, HepG2, 72 hours); 0.1 to 5 µM with melanoma A375 (Homo sapiens, A-375, 72 hours); 0.1 to 5 µM in test [3] (setting [5]); 0.1 to 5 µM in the test on prostate cancer PC-3 (Homo sapiens); 0.1 to 5 µM in the test with breast cancer cell MCF-7 (Homo sapiens, MCF7, 72 hours).
